The subject of assay [1] is Clostridium difficile (Clostridioides difficile), Human Strain R20291, Ribotype RT027. Put plainly: MIC on Clostridium difficile human strain R20291, ribotype RT027. The assay is classed as cell-based. Particulars: 16 h incubation, OD600. The procedure:
Determination of Minimal Inhibitory Concentrations (MICs) of Bile Acid Derivatives on Clostridium difficile (Clostridioides difficile), Human Strain R20291, Ribotype RT027, Reference DSMZ (DSM-27147)
All bacterial culturing steps and MIC experiments were performed under anoxic conditions (95% N2, 5% H2) and 37° C. in an incubator model 2002 that was placed in a Type B vinyl anaerobic chamber, both from Coy Laboratories Products. The strains were maintained as frozen stock cultures in Brain-Heart Infusion broth supplemented with […] and 1% (w/v) L-cysteine (BHIS) containing 40% (v/v) glycerine (Carl Roth GmbH, Cat. #3783.1) at −80° C. Brain-heart infusion broth (Sigma Aldrich, Cat. #53286) with the addition of with 5 g/L yeast extract (Carl Roth GmbH, Cat. #2363.5) was prepared according to the manufacturer's instructions. After heat sterilization, 1 g L-cysteine (Sigma Aldrich, Cat. #C7352) was added that was dissolved in 10 mL of distilled water (H2Odd) and filter sterilized. Medium was placed over night into the anaerobic chamber for degassing. For the MIC-assay cryo-preserved strains were streaked out on BBL™ Columbia CNA Agar with 5% Sheep Blood (BD™, Cat. #221352) and grown for 2-3 d. These plates were kept at rt in the anaerobic chamber for up to two weeks for starting fresh liquid cultures. […]

The test system of assay [2] is Clostridium difficile (Clostridioides difficile), Mouse Strain VPI 10463 (ATCC 43255). Put plainly: MIC on Clostridium difficile mouse strain VPI 10463. It counts as cell-based. The note with it: ATCC43255, 48 hours, presence/absence of growth, tested 0.015-250 μM. The protocol: Determination of Minimal Inhibitory Concentrations (MICs) of Bile Acid Derivatives on Clostridium difficile (Clostridioides difficile), Mouse Strain VPI 10463 (ATCC 43255)
Concentrations (0.015-250 μM) of test compounds are prepared by serial two-fold dilutions in pre-reduced brain heart infusion (BHI) broth. To each well containing test article, approximately 5×10^5 CFU of bacteria are added and incubated for 48 hours in an anaerobic chamber at 37° C. Following incubation, the MIC of each test article is determined by presence/absence of bacterial growth in each well.

Values after ≈ are worked out from the molar mass of the structure shown.

Consider `C[C@H](CCC(=O)O)[C@H]1CC[C@H]2[C@@H]3CC[C@@H]4C[C@@H](O)CC[C@]4(C)[C@H]3CC[C@]12C` [Example 1, Isolithocholic Acid], for which the MIC (commonly the least concentration at which growth counts as inhibited) in assay [1] is 16 µM (≈ 6.03 µg/mL); in assay [2], 15.6 µM (≈ 5.87 µg/mL).

The values above are taken from patent US20210323995A1, “ISOLITHOCHOLIC ACID OR ISOALLOLITHOCHOLIC ACID AND DEUTERATED DERIVATIVES THEREOF FOR PREVENTING AND TREATING CLOSTRIDIUM DIFFICILE-ASSOCIATED DISEASES” (PHENEX PHARMACEUTICALS AG, priority 2018, published 2021).
